From patent publication US11123350B2, “Metal delivery agents and therapeutic uses of the same” (THE UNIVERSITY OF MELBOURNE, priority 2006, dated 2021)

Legend:
A30P cells = assay: Dopamine induced cell death, A30P cells (MTT); assay type: cell-based
G93A-SOD1 mice = details: other reported pharmacological treatments (literature); cited from earlier work

Compound | % recovery (A30P cells; Dopamine 500 μm + complex 0.01 μM) [%] | % recovery (A30P cells; Dopamine 500 μm + complex 0.1 μM) [%] | Increased Life Span (G93A-SOD1 mice)
CN=C([S-])N/N=C(C)/C(C)=N/NC([S-])=NC.[64Cu+2] [Complex A2, copper(II)diacetylbis(N(4)-methylthiosemicarbazone)] | 105.90 | 97.77 | 
NCC1(CC(=O)O)CCCCC1 [Gabapentin] |  |  | No effect
CC(=O)Oc1ccccc1C(=O)O [Lysine Acetyl salicylate] |  |  | No effect
O=C1NC(=O)C(c2ccc(-c3ccccc3)cc2)(N2CCN(c3ccc([N+](=O)[O-])cc3)CC2)C(=O)N1 [Ro 28-2653] |  |  | 13 days
